Test results as given in US20030055244A1, “Pyridyl-containing spirocyclic compounds as inhibitors of fibrinogen-dependent platelet aggregation” (priority 1999, published 2003).
Like-named read-outs stand apart in the source and are kept apart here.

What was measured:
GPIIb-IIIa = target: T1, GPIIb-IIIa (Homo sapiens, UniProt P05106+P08514); experiment: ELISA IIb-IIIa assay (fibrinogen binding to immobilized purified GPIIb-IIIa); conditions: inhibition of fibrinogen binding to purified GPIIb-IIIa
T1 construct: Purified platelet GPIIb-IIIa receptor was prepared as described by Fitzgerald; from tissue; host or cells: platelets
T1 sequence (P08514 32-887 limits assumed): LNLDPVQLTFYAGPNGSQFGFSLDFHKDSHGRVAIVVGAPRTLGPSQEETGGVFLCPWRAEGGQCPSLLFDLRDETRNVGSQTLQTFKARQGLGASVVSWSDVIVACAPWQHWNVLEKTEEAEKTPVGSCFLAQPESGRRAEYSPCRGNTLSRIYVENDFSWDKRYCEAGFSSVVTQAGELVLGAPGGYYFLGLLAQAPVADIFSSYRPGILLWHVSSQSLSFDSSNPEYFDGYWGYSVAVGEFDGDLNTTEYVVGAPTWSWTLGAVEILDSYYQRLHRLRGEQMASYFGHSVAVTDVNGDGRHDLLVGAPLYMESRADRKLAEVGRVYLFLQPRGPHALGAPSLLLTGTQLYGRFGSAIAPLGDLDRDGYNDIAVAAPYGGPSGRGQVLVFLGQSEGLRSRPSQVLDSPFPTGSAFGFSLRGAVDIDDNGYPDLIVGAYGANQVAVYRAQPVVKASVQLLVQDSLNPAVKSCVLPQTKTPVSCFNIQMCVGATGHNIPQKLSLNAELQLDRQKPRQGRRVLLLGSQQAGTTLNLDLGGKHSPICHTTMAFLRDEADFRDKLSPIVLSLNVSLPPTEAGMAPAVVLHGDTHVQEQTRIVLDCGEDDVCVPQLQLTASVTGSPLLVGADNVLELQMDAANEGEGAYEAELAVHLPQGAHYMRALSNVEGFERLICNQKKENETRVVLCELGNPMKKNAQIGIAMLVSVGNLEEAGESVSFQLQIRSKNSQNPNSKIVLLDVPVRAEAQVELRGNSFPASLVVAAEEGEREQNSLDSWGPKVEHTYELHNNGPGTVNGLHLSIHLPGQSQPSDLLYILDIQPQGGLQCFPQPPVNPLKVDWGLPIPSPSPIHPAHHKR
T1 sequence (P08514 891-1039 limits assumed): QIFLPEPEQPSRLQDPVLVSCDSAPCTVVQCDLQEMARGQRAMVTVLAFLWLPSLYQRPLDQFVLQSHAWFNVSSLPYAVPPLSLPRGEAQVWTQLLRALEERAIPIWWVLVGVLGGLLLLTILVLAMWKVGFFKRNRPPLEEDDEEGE
T1 sequence (P05106 27-788): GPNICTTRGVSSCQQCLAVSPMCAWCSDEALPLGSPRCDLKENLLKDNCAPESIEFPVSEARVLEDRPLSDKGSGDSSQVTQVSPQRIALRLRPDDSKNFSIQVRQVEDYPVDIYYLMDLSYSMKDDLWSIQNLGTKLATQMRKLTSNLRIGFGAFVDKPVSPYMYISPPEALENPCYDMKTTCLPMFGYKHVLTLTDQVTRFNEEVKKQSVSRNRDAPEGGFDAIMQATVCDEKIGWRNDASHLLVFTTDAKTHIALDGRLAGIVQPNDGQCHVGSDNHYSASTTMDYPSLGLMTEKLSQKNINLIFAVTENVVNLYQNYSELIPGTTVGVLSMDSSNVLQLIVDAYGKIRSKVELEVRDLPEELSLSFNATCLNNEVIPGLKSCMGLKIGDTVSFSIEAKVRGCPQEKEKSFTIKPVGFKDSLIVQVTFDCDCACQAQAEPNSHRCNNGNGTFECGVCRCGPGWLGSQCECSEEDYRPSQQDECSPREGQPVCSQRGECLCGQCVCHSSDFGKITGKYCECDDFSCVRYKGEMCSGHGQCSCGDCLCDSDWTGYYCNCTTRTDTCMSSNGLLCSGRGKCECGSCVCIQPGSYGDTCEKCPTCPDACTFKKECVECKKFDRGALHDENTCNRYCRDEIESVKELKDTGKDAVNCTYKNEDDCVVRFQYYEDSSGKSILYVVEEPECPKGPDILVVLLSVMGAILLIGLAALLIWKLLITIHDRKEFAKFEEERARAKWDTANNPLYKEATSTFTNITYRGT
Protocol: No. 1 - The ELISA IIb-IIIa Assay
PIIb-IIIa is coated onto microtiter plates. The coated support is then contacted with fibrinogen and with the test material (e.g., compounds of Formula I) and incubated for a sufficient time to permit maximal binding of fibrinogen to the immobilized GPIIb- Ila. Fibrinogen is typically provided at a concentration of about 5-50 nM and the test material can, if desired, be added at a series of dilution. Typical incubations are 2 to 4 hours at 25° C., the time and temperature being interdependent.
After incubation, the solution containing the fibrinogen and test material is removed and the level of binding of fibrinogen measured by quantitating bound fibrinogen to GPIIb-IIIa. Any suitable means of detection may be used, but it is convenient to employ labeled fibrinogen, for example using biotinylated labels. Such methods are well known in the art.
A. Description of Assays—Plate Assays
After purification, the receptors were stored in 0.1% Triton X-100 at 0.1-1.0 mg/ml.
The receptors were coated to the wells of 96-well flat-bottom ELISA plates (Linbro EIA-Plus microtiter plate, Flow Laboratories) after diluting 1:200 with a solution of 20 mM Tris-HCl, 150 mM NaCl, 1 mM CaCl2, pH 7.4, to reduce the Triton X-100 concentration to below its critical micellar concentration and adding an aliquot of 100 ul to each well. The wells were all allowed to incubate overnight at 4° C., and then aspirated to dryness. Additional sites were blocked by the addition of bovine serum albumin (BSA) at 35 mg/ml in the above buffer for two hours at 30° C. to prevent nonspecific binding. The wells were then washed once with binding buffer ([…] Tris-HCl, 100 mM NaCl 2 mM CaCl2, 1 mg/ml BSA).
The corresponding ligands (fibrinogen, von Willebrand Factor, or vitronectin) were conjugated to biotin using commercially available reagents and standard protocols. The labeled ligands were added to the receptor-coated wells at final concentration of 10 nM (100 ul/well) and incubated for 3 hours at 25° C. in the presence or absence of the test samples. After incubation, the wells are aspirated to dryness and bound ligand is quantitated.
Decreased color development is observed in wells incubated with test samples which inhibit binding of ligand to receptor.

[1] = test system: human platelet-rich plasma; experiment: Platelet aggregation assay (Aggregation-Human PRP/ADP); format: cell-based
Protocol: Platelet-rich plasma was prepared from healthy human volunteers for use in determining inhibition of platelet aggregation by the compounds.
Platelet-rich plasma was prepared at room temperature by centrifugation of the citrated whole blood at 100 × g for twelve minutes. The platelet rich plasma contained approximately 200-400,000 platelets/μl.
Platelet aggregation was assayed in a 4-channel platelet aggregation profiler (PAP-4, Biodata, Hatboro, Pa.) according to the manufacturers directions. Inhibition of platelet aggregation was studied by adding varying amounts of adenosine diphosphate (ADP) to stirred human platelet-rich plasma. Specifically, the human platelet-rich plasma was incubated with the compound being tested for 1 minute at 37° C. prior to the addition of a variety of aggregating agents most often ADP 5 μM to 20 μM, but also 1 μg/ml collagen, 1 μM U46619 and 0.3 μM platelet activating factor.

[2] = read-out: PRP (ADP-Citrate) IC50

## O=C(O)CCCC(=O)N1CCC2(CC1)CCN(c1ccncc1)CC2 [Example 1, 5-oxo-5-(9-(4-pyridyl)-3,9-diazaspiro[5.5]undec-3-yl)pentanoic acid]
GPIIb-IIIa
  IC50: 238 nM
[1]; read-out: PRP IC50
  IC50: 5100 nM

## O=C(O)CCCCC(=O)N1CCC2(CC1)CCN(c1ccncc1)CC2 [Example 2, 6-oxo-6-(9-(4-pyridyl)-3,9-diazaspiro[5.5]undec-3-yl)hexanoic acid]
GPIIb-IIIa
  IC50: 258 nM
[1]; read-out: PRP IC50
  IC50: 4500 nM

## O=C(O)CCCCCC(=O)N1CCC2(CC1)CCN(c1ccncc1)CC2 [Example 3, 7-oxo-7-(9-(4-pyridyl)-3,9-diazaspiro[5.5]undec-3-yl)heptanoic acid]
GPIIb-IIIa
  IC50: 265 nM
[1]; read-out: PRP IC50
  IC50: 4500 nM

## O=C(O)CCCCCCC(=O)N1CCC2(CC1)CCN(c1ccncc1)CC2 [Example 4, 8-oxo-8-(9-(4-pyridyl)-3,9-diazaspiro[5.5]undec-3-yl)octanoic acid]
GPIIb-IIIa
  IC50: 1160 nM
[1]; read-out: PRP IC50
  IC50: 18000 nM

## O=C(N[C@@H](CCC(=O)N1CCC2(CC1)CCN(c1ccncc1)CC2)C(=O)O)OCc1ccccc1 [Example 5, 2(S)-2-{[(benzyloxy)carbonyl]amino}-5-oxo-5-[9-(4-pyridyl)-3,9-diazaspiro [5.5]undec-3-yl]pentanoic acid]
GPIIb-IIIa
  IC50: 7 nM
[1]; read-out: PRP IC50
  IC50: 4600 nM

## CCCCS(=O)(=O)N[C@@H](CCC(=O)N1CCC2(CC1)CCN(c1ccncc1)CC2)C(=O)O [Example 6, 2(S)-2-[(butylsulfonyl)amino]-5-oxo-5-[9-(4-pyridyl)-3,9-diazaspiro [5.5]undec-3-yl]pentanoic acid]
[1]; read-out: PRP IC50
  IC50: 790 nM

## Cc1ccc(S(=O)(=O)N[C@@H](CCC(=O)N2CCC3(CC2)CCN(c2ccncc2)CC3)C(=O)O)cc1 [Example 7, 2(S)-2-{[(4-methylphenyl)sulfonyl]amino}-5-oxo-5-[9-(4-pyridyl)-3,9-diazaspiro [5.5]undec-3-yl]pentanoic acid]
[1]; read-out: PRP IC50
  IC50: 77 nM

## Cc1noc(C)c1S(=O)(=O)N[C@@H](CCC(=O)N1CCC2(CC1)CCN(c1ccncc1)CC2)C(=O)O [Example 8, 2(S)-2-{[(3,5-dimethyl-4-isoxazolyl)sulfonyl]amino}-5-oxo-5-[9-(4-pyridyl)-3,9-diazaspiro [5.5]undec-3-yl]pentanoic acid]
GPIIb-IIIa
  IC50: 2 nM
[1]; read-out: PRP IC50
  IC50: 21 nM

## CCCCOC(=O)N[C@@H](CCC(=O)N1CCC2(CC1)CCN(c1ccncc1)CC2)C(=O)O [Example 9, 2(S)-2-[(butoxycarbonyl)amino]-5-oxo-5-[9-(4-pyridyl)-3,9-diazaspiro [5.5]undec-3-yl]pentanoic acid]
GPIIb-IIIa
  IC50: 2 nM
[1]; read-out: PRP IC50
  IC50: 722 nM

## Cc1noc(C)c1S(=O)(=O)N[C@@H](CNC(=O)N1CCC2(CC1)CCN(c1ccncc1)CC2)C(=O)O [Example 10, (2S)-2-{[(3,5-dimethyl-4-isoxazolyl)sulfonyl]amino}-3-( {[9-(4-pyridyl)-3,9-diazaspiro [5.5]undec-3-yl]carbonyl}amino)propanoic acid]
GPIIb-IIIa
  IC50: 1 nM
[1]; read-out: PRP IC50
  IC50: 31 nM

## O=C(O)COC1CCN(C(=O)N2CCC3(CC2)CCN(c2ccncc2)CC3)CC1 [Example 11, 2-[(1 -{[9-(4-pyridyl)-3,9-diazaspiro[5.5]undec-3-yl]carbonyl}-4-piperidyl)oxy]acetic acid]
GPIIb-IIIa
  IC50: 129 nM
[1]; read-out: PRP IC50
  IC50: 2650 nM

## O=C(O)CC(=O)N1CCC(C(=O)N2CCC3(CC2)CCN(c2ccncc2)CC3)CC1 [Example 12, 3-oxo-3-(4-{[9-(4-pyridyl)-3,9-diazaspiro[5.5]undec-3-yl]carbonyl}piperidino)propanoic acid]
GPIIb-IIIa
  IC50: 39 nM
[1]; read-out: PRP IC50
  IC50: 1770 nM

## CCCCOC(=O)N[C@@H](CNC(=O)C1CCC2(CC1)CCN(c1ccncc1)CC2)C(=O)O [Example 16, (2S)-2-{[(butyloxyl)carbonyl]amino}-3-({[3-(4-pyridyl)-3-azaspiro[5.5]undec-9-yl]carbonyl}amino)propanoic acid]
[1]; read-out: PRP (ADP) IC50
  IC50: 1880 nM

## CC(CC(=O)O)NC(=O)C1CCC2(CC1)CCN(c1ccncc1)CC2 (centres unmarked) [Example 17, 3-({[3-(4-pyridyl)-3-azaspiro[5.5]undec-9-yl]carbonyl}amino)butanoic acid]
[1]; read-out: PRP (ADP) IC50
  IC50: 14800 nM

## CC(CNC(=O)C1CCC2(CC1)CCN(c1ccncc1)CC2)CC(=O)O (centres unmarked) [Example 18, 3-methyl-4-({[3-(4-pyridyl)-3-azaspiro[5.5]undec-9-yl]carbonyl}amino) butanoic acid]
[1]; read-out: PRP (ADP) IC50
  IC50: 3000 nM

## O=C(O)CC(=O)N1CCC(C(=O)N2CCC3(CCN(c4ccncc4)CC3)C2)CC1 [Example 19, 3-oxo-3-(4-{[8-(4-pyridyl)-2,8-diazaspiro[4.5]dec-2-yl]carbonyl}piperidino)propanoic acid]
GPIIb-IIIa
  IC50: 28 nM
[1]; [2]
  IC50: 1600 nM

## O=C(N[C@@H](CCC(=O)N1CCC2(CCN(c3ccncc3)CC2)C1)C(=O)O)OCc1ccccc1 [Example 20, (2S)-2-{[(benzyloxy)carbonyl]amino}-5-oxo-5-[8-(4-pyridyl)-2,8-diazaspiro [4.5]dec-2-yl]pentanoic acid]
GPIIb-IIIa
  IC50: 12 nM
[1]; [2]
  IC50: 9100 nM

## CCCCOC(=O)N[C@@H](CCC(=O)N1CCC2(CCN(c3ccncc3)CC2)C1)C(=O)O [Example 21, (2S)-2-[(butoxycarbonyl)amino]-5-oxo-5-[8-(4-pyridyl)-2,8-diazaspiro [4.5]dec-2-yl]pentanoic acid]
GPIIb-IIIa
  IC50: 162 nM
[1]; [2]
  IC50: 5700 nM

## O=C(O)CCCCC(=O)N1CCC2(CCN(c3ccncc3)CC2)C1 [Example 22, 6-oxo-6-(8-(4-pyridyl)-2,8-diazaspiro[4.5]dec-2-yl)hexanoic acid]
[1]; [2]
  IC50: > 80000 nM

## O=C(O)CCCCCCC(=O)N1CCC2(CCN(c3ccncc3)CC2)C1 [Example 23, 8-oxo-8-(8-(4-pyridyl)-2,8-diazaspiro[4.5]dec-2-yl)octanoic acid]
GPIIb-IIIa
  IC50: 196 nM
[1]; [2]
  IC50: 18700 nM

## O=C(O)CCCCCC(=O)N1CCC2(CCN(c3ccncc3)CC2)C1 [Example 24, 7-oxo-7-(8-(4-pyridyl)-2,8-diazaspiro[4.5]dec-2-yl)heptanoic acid]
GPIIb-IIIa
  IC50: 16 nM
[1]; [2]
  IC50: 1300 nM

## O=C(O)CCN1CCN(C(=O)N2CCC3(CCN(c4ccncc4)CC3)C2)CC1=O [Example 25, 3-(2-oxo-4-((8-(4-pyridyl)-2,8-diazaspiro[4.5]dec-2-yl)carbonyl)piperazino)propanoic acid]
[1]; [2]
  IC50: 8300 nM

## O=C(O)CCN1CCN(C(=O)N2CCC3(CC2)CCN(c2ccncc2)C3)CC1=O [Example 30, 3-(2-oxo-4-((2-(4-pyridyl)-2,8-diazaspiro[4.5]dec-8-yl)carbonyl)piperazino)propanoic acid]
[1]; [2]
  IC50: 1290 nM

## O=C(O)CN1CCC(N2CCC3(CCN(c4ccncc4)C3)CC2)CC1 [Example 32, 2-{4-(2-(4-pyridyl)-2,8-diazaspiro[4.5]dec-8-yl]piperidino}acetic acid]
[1]; [2]
  IC50: 9500 nM

## O=C(O)CN1CCC(CC(=O)N2CCC3(CC2)CCN(c2ccncc2)C3)CC1 [Example 33, 2-(4-{2-oxo-2-[2-(4-pyridyl)-2,8-diazaspiro[4.5]dec-8-yl]ethyl}piperidino)acetic acid]
[1]; [2]
  IC50: 80000 nM

## CCCCOC(=O)N[C@@H](CCC(=O)N1CCC2(CC1)CCN(c1ccncc1)C2)C(=O)O [Example 35, (2S)-2-[(butoxycarbonyl)amino]-5-oxo-5-[2-(4-pyridyl)-2,8-diazaspiro [4.5]dec-8-yl]pentanoic acid]
[1]; [2]
  IC50: 4000 nM

## CN(CC(=O)O)C1CCN(C(=O)N2CCC3(CC2)CCN(c2ccncc2)C3)CC1 [Example 46, 2-[methyl(1-{[2-(4-pyridyl)-2,8-diazaspiro[4.5]dec-8-yl]carbonyl}-4-piperidyl)amino]acetic acid]
[1]; read-out: PRP IC50
  IC50: 10000 nM

## O=C(O)COC1CCN(CC(=O)N2CCC3(CC2)CCN(c2ccncc2)C3)CC1 [Example 50, 2-[(1-{2-oxo-2-[2-(4-pyridyl)-2,8-diazaspiro[4.5]dec-8-yl]ethyl}-4-piperidyl)oxyl]acetic acid]
[1]; read-out: PRP IC50
  IC50: 80000 nM

## O=C(O)COc1ccc(C(=O)N2CCC3(CC2)CCN(c2ccncc2)C3)cc1 [Example 52, 2-(4-{[2-(4-pyridyl)-2,8-diazaspiro[4.5]dec-8-yl]carbonyl}phenoxy) acetic acid]
[1]; [2]
  IC50: 11300 nM
